In PubChem BioAssay AID743183 (Broad Institute, 2013) one finds AC90 and activity change, negative = inhibition data, which are given here for 37 compounds.

Results filed as inconclusive are left out. Activity calls are given as the source filed them. The rule behind the calls is not given here.

The test system of one experiment is non-replicating M. tuberculosis, luciferase reporter luminescence. The experiment in a line: inhibitors of non-replicating M. tuberculosis, dose response, luciferase, dry powder (AID 743183).
Conditions: not given
In the case of `O=C(NC1CC2CCC1C2)C1COc2ccccc2O1` (configuration not stated), the AC90 is 1.39 µM.

Consider `CCOC(=O)COc1ccc2c(=O)c(-c3ccccc3)coc2c1`, for which the AC90 was 3.65 µM.

As to `NC1CCN(c2c(F)cc3c(=O)c(C(=O)O)cn(C4CC4)c3c2Cl)C1` (configuration not stated), the AC90 was 2.04 µM.

In the case of `CCOC(=O)c1cc(-c2csc(COc3ccccc3)n2)on1`, the AC90 was 6.95 µM.

As to `Clc1cccc(-c2ccc(CNCc3ccccn3)o2)c1`, the AC90 is 16.3 µM.

For `Fc1ccc(-c2ccc(CNCc3ccccn3)o2)cc1Cl`, the AC90 is 13.7 µM.

As to `Brc1c(-c2ccc3c(c2)OCO3)nc2ncccn12`, the AC90 is 12.9 µM.

`Cc1nnc(NC(=O)c2ccc3ccccc3c2)o1`: the AC90 is 0.372 µM.

Take `Cc1cc(NC(=O)C2CCCCC2)n(-c2nc3ccccc3[nH]2)n1`: the AC90 was 12.9 µM.

With `O=C(NCc1cccs1)c1ccc(Br)o1`, the AC90 is 5.8 µM.

As to `O=C(COc1c(Br)cc(Br)c2cccnc12)N1CCCCC1`, the AC90 is 7.78 µM.

Consider `C=CCn1c(NC(=O)c2ccccc2)nc2ccccc21`, for which the AC90 was 7.69 µM.

Regarding `O=C(CCN1CCC(c2cccs2)=N1)c1cccs1`, the AC90 was 14.3 µM.

For the compound `Clc1cccc(CNCCNCc2cccc(Cl)c2)c1`, the AC90 was 19.4 µM.

`Cc1cc(C)n2nc(S(=O)(=O)Nc3c(Cl)cccc3Cl)nc2n1`: the AC90 is 5.45 µM.

Regarding `COC(=O)COc1ccc2c(=O)c(Oc3ccccc3)c(C)oc2c1`, the AC90 is 2.94 µM.

Regarding `O=C(CCc1ccccc1)NC1C2CC3CC(C2)CC1C3` (configuration not stated), the AC90 is 10.3 µM.

Take `Cc1cccc(Cn2ccc(NC(=O)c3ccc4c(c3)OCO4)n2)c1`: the AC90 is 9.73 µM.

Consider `CS(=O)(=O)Cc1nc2ccccc2oc1=O`, for which the AC90 is 38.6 µM.

With `O=C(Nc1nc2ccccc2[nH]1)c1cccc(Cl)c1`, the AC90 was 4.96 µM.

Consider `CCOC(=O)COc1ccc2c(=O)cc(-c3ccccc3)oc2c1`, for which the AC90 was 2.9 µM.

With `CCOC(=O)COc1ccc(C(=O)NC2CCCCC2)cc1`, the AC90 is 8.93 µM.

As to `NC(=O)C1(N2CCCCC2)CCN(C2CC(=O)N(CCc3ccccc3)C2=O)CC1` (configuration not stated), the AC90 is 22.3 µM.

In the case of `CCOCCOC(=O)COc1ccc2c(-c3ccccc3)cc(=O)oc2c1`, the AC90 is 8.82 µM.

Consider `CCCOC(=O)c1ccc(NC(=O)c2ccc(Br)o2)cc1`, for which the AC90 was 7.14 µM.

Regarding `CCCCN(C/C=C/c1ccccc1OC)Cc1ccccc1`, the AC90 is 24.6 µM.

Turning to `CCOC(=O)COc1ccc2c(c1)C(=O)CC1(CCCCC1)O2`, the AC90 was 5.77 µM.

As for `CCc1ccc(OCCCC(=O)NCc2ccco2)cc1`, the AC90 is 31.8 µM.

Turning to `COC(=O)COc1cccc(NC(=O)c2ccc(Cl)cc2)c1`, the AC90 was 11.7 µM.

Consider `Cc1cccc(C)c1N1C(=O)CC(N2CCSCC2)C1=O` (configuration not stated), for which the AC90 is 4.7 µM.

On to `c1ccc(Nc2nc(-c3ccccn3)cs2)cc1`, for which the AC90 was 1.95 µM.

With `CCOC(=O)c1cc(-c2csc(COc3ccccc3Cl)n2)on1`, the AC90 was 4.52 µM.

For `O=C(COc1cccc2ccccc12)Nc1nc2ccccc2[nH]1`, the AC90 is 6.61 µM.

System in a further experiment: not listed separately
The description is as above. The settings on record: non-replicating M. tuberculosis, luciferase reporter luminescence; at 38 µM (top of the series).
For `N#Cc1nc(-c2cccs2)oc1NCCc1ccccc1`, the activity change, negative = inhibition was -87.4% (inactive).

As for `O=C(OCc1ccc(Cl)c(Cl)c1)c1ccccn1`, the activity change, negative = inhibition is -46.6% (inactive).

For the compound `Cc1ccc(C)c(-c2csc(NC(=O)c3cnccn3)n2)c1`, the activity change, negative = inhibition was -66.6% (inactive).

`CCOC(=O)CNC(=O)N1c2ccccc2Sc2ccccc21`: the activity change, negative = inhibition is -75.4% (inactive).
